{
  "source": "paper PMC7320011",
  "about": "“Rationally designed ruthenium complexes for 1- and 2-photon photodynamic therapy” (Nature Communications, 2020)",
  "key": {"[1]": {"test": "Singlet oxygen quantum yield, indirect evaluation (1O2 scavenger absorbance)", "format": "physicochemical", "method": "Indirect evaluation: measurement in acetonitrile: the sample was prepared in an air-saturated acetonitrile solution with an absorption of 0.2 at the irradiation wavelength, N,N-dimethyl-4-nitrosoaniline aniline (RNO, 24 µM) and imidazole (12 mM). Measurement in PBS buffer: the sample was prepared in an air-saturated PBS solution containing the complex with an absorption of 0.2 at the irradiation wavelength, N,N-dimethyl-4-nitrosoaniline aniline (RNO, 20 µM) and histidine (10 mM). The samples were irradiated for various time points with an Atlas Photonics LUMOS BIO irradiator. The absorption of the samples was constantly monitored with a SpectraMax M2 Microplate Reader (Molecular Devices). The difference in absorption (A0 − A) at 420 nm for the measurement in acetonitrile or at 440 nm for the measurement in PBS was determined. The difference in absorption was then plotted against the irradiation times and the slope of the linear regression calculated. The absorption of the sample was corrected with an absorption correction factor. The singlet oxygen quantum yields were calculated using the same formulas as used for the direct evaluation."}, "[2]": {"test_system": "mouse colon carcinoma (CT-26) cells", "test": "(Photo-)cytotoxicity on 2D cell monolayers, CT-26", "conditions": "for IC50: 1-3 as chloride salts", "quoted_text": "A total of 4 × 10^3 cells were seeded on 96-well plates and allowed to adhere overnight. The cells were treated with increasing concentrations of the sample diluted in cell media achieving a total volume of 200 μL. The cells were incubated with the sample for 8 h and, after this time, the medium refreshed. To study the phototoxic effect of the sample, the cells were exposed to 480 nm (spectral half-width: 20 nm, 10 min, 5.2 mW cm^−2, 3.1 J cm^−2) or 540 nm (spectral half-width: 30 nm, 40 min, 4.0 mW cm^−2, 9.5 J cm^−2) light using an Atlas Photonics LUMOS BIO irradiator. To study the dark cytotoxicity of the sample, the cells were not irradiated and the medium exchanged. The cells were grown for an additional 40 h at 37 °C. After this time, the medium was replaced with fresh medium containing resazurin with a final concentration of 0.2 mg mL^−1. The cells were incubated for 4 h and the amount of the fluorescent product resorufin determined (λex = 540 nm, λem = 590 nm) with a SpectraMax M2 Microplate Reader (Molecular Devices). The obtained data was analyzed with the GraphPad Prism software."}, "Photobleaching by NMR": {"test": "Photobleaching by NMR", "format": "physicochemical", "conditions": "450 nm, 10 min, 13.2 J cm^−2, CD3CN", "method": "The sample was dissolved in air saturated 0.7 mL CD3CN and stored in a NMR tube in the dark. A ^1H-NMR spectrum was measured directly after preparation to ensure the identity of the sample. The sample was then irradiated at 450 nm with an Atlas Photonics LUMOS BIO irradiator (10 min, 13.2 J cm^−2). Following this treatment, a ^1H-NMR spectrum was again measured."}},
  "note": "Where two headings read alike, the source gives them in different places.",
  "data": [
    {"smiles": "CN(C)c1ccc(/C=C/c2ccnc(-c3cc(/C=C/c4ccc(N(C)C)cc4)ccn3)c2)cc1.CN(C)c1ccc(/C=C/c2ccnc(-c3cc(/C=C/c4ccc(N(C)C)cc4)ccn3)c2)cc1.CN(C)c1ccc(/C=C/c2ccnc(-c3cc(/C=C/c4ccc(N(C)C)cc4)ccn3)c2)cc1.F[P-](F)(F)(F)(F)F.F[P-](F)(F)(F)(F)F.[Ru+2]", "note": "[compound 2, [Ru((E,E′)-4,4′-Bis[p-(N,N-dimethylamino)styryl]-2,2′-bipyridine)3][PF6]2]", "values": [
      {"measurement": "Singlet oxygen quantum yield, Indirect 450 nm CH3CN", "setting": "[1]; 450 nm, CH3CN", "result": 25, "unit": "%"},
      {"measurement": "Singlet oxygen quantum yield, Indirect 450 nm PBS", "setting": "[1]; 450 nm, PBS", "result": 3, "unit": "%"},
      {"measurement": "Singlet oxygen quantum yield, Indirect 540 nm CH3CN", "setting": "[1]; 540 nm, CH3CN", "result": 16, "unit": "%"},
      {"measurement": "Singlet oxygen quantum yield, Indirect 540 nm PBS", "setting": "[1]; 540 nm, PBS", "result": 1, "unit": "%"},
      {"measurement": "PI (480 nm)", "setting": "[2]; CT-26, dark vs 480 nm", "result": "> 2.3"},
      {"measurement": "PI (540 nm)", "setting": "[2]; CT-26, dark vs 540 nm", "result": "> 1.6"},
      {"measurement": "IC50", "setting": "[2]; read-out: IC50 540 nm (40 min, 9.5 J cm-2), CT-26, 540 nm", "result": 62.5, "unit": "µM"},
      {"measurement": "IC50", "setting": "[2]; read-out: IC50 dark, CT-26, dark", "result": "> 100", "unit": "µM"},
      {"measurement": "effect of irradiation on the molecular structure (NMR)", "setting": "Photobleaching by NMR", "result": "decomposition of the compound"}
    ]}
  ]
}
